Legend:
Ser^1981 in ATM = assay: Ser^1981 phosphorylation of ATM in primary fibroblasts after treatment with agents; format: cell-based, human; conditions: for Phosphorylation of ATM: over one and five hours after exposure
Procedure: Another aspect of the present invention provides a method of detecting DNA damage in a cell by identifying the activation state of ATM kinase.
293T cells, HeLa cells and 1070SK primary human foreskin fibroblasts (HFF) (>passage 20, ATCC) were cultured in Dulbecco's Modification of Eagle's Medium (DMEM) supplemented with 10% fetal bovine serum (FBS). GM00637 and GM09607 fibroblasts were grown in DMEM containing 15% FBS. GM00536 lymphoblast cells were grown in RPMI supplemented with 10% fetal calf serum. 293T cells were transfected using FUGENE™ (Roche, Indianapolis, Ind.) and HeLa cells, GM00637 and GM09607 with LIPOFECTAMINE™ (INVITROGEN™ Corp., Carlsbad, Calif.). Metabolic labeling was performed by pre-equilibrating cells in phosphate-free media for three hours prior to the addition of 0.5 mCi/ml ^32P orthophosphate (PerkinElmer Life Sciences Inc., Boston, Mass.) for 30 minutes. Inhibition of DNA synthesis and analysis of G2/M checkpoint after irradiation was assessed using well-known methods (e.g., Xu, et al. (2001) Mol. Cell. Biol. 21:3445-3450). Wortmannin was added to samples on ice 15 minutes prior to reactions and 5 μM manganese and 1 μg sonicated calf thymus DNA were present or absent. Proteins were crosslinked by incubating cells in formaldehyde/phosphate-buffered saline (PBS) for 10 minutes at room temperature. Formaldehyde was washed out using PBS containing 100 mM glycine and immunoprecipitation was then performed. Hypotonic swelling was performed for 1 hour in PBS containing 0.45% glucose (w/v) and 1% FBS with the NaCl concentration reduced to either 50 mM or 100 mM. HFF were incubated with chloroquine in DMEM containing 10% FBS for four hours. Prior to an eight hour incubation with Trichostatin A, HFF was grown for 24 hours in DMEM containing 0.1% FBS. […] For immunofluoresence experiments, HFF grown on glass slides were fixed in 50% methanol/50% acetone for two hours at −20° C. Cells were incubated with primary antibodies at 1/1000 (H2AXγ; Upstate, Charlottesville, Va.) and secondary antibodies at 1/500 (Cy3 anti-mouse and FITC anti-rabbit; Jackson ImmunoResearch Laboratories, Inc., West Grove, Pa.) in PBS, 10% FBS for one hour.
Mammalian cell extracts were prepared in buffer A. Cleared supernatants were immunoprecipitated with anti-FLAG® M2 sepharose or anti-ATM D1611 (Alligood, et al. (2000) Hybridoma 19:317-321) and protein A/G agarose. Beads were washed twice with buffer A and twice with RIPA buffer. Co-immunoprecipitation was performed in buffer B: 50 mM Tris (pH 7.5), 150 mM NaCl, 0.5% TWEEN® 20, 0.2% NP-40, 50 mM NaF, 1 mM AEBSF, and 1x protease inhibitor mixture (Roche, Indianapolis, Ind.).
Western blotting was performed with anti-FLAG® M5 (Sigma-Aldrich, St. Louis, Mo.), anti-ATM MAT3, anti-GST (Amersham Pharmacia Biotech, Uppsala, Sweden) or anti-6x-His (Sigma-Aldrich, St. Louis, Mo.).

ATM protein = assay: ATM phosphorylation after chromatin-modifying treatments (immunoblot and immunofluorescence); format: cell-based, human
Description: Since such a high fraction of cellular ATM becomes phosphorylated so rapidly in the presence of so few DNA strand breaks, it is unlikely that the ATM oligomers could require direct binding to DNA strand breaks for activation and autophosphorylation. Therefore, the introduction of DNA strand breaks may cause a change in the nucleus that activates ATM at a distance from the break itself. As DNA strand breaks introduced by ionizing irradiation rapidly alter topological constraints on DNA (Roti Roti and Wright (1987) Cytometry 8:461-467; Jaberaboansari, et al. (1988) Radiat. Res. 114:94-104; Malyapa, et al. (1996) Int. J. Radiat. Oncol. Biol. Phys. 35:963-973),alterations in some aspect of chromatin structure fit the criteria of being a rapid change and being able to act a distance in the nucleus. Chromatin and chromosome structures can be altered in the absence of DNA breaks by hypotonic conditions (Earnshaw, and Laemmli (1983) J. Cell Biol. 96:84-93; Jeppesen, et al. (1992) Chromosoma 101:322-332), exposure to chloroquine (Krajewski (1995) FEBS Letters 361:149-152; Jensen, et al. (1994) Cancer Res. 54:2959-2963; Snyder (2000) Environ. Mol. Mutagen. 35:13-21), or treatment with histone deaceylase inhibitors (Krajewski (1999) J. Biomol. Struct. Dynam. 16:1097-1106; Yoshida, et al. (1995) BioEssays 17:423-430; Kuo and Allis (1998) BioEssays 20:615-626). […]

HeLa cells = assay: Radioprotection assay (colony formation after irradiation); format: cell-based; conditions: for Average Number of Colonies*: 2 μg/ml chloroquine one hour, washed one hour, 1000 cells plated
Procedure: HeLa cells were treated with 2 μg/ml of chloroquine for one hour, washed for one hour, and irradiated at 2 or 6 Gy. Subsequently, 1000 cells were plated and assessed for colony formation.

HFF = assay: Cell death of HFF during incubation; conditions: HFF incubated with chloroquine four hours
Procedure: 293T cells, HeLa cells and 1070SK primary human foreskin fibroblasts (HFF) (>passage 20, ATCC) were cultured in Dulbecco's Modification of Eagle's Medium (DMEM) supplemented with 10% fetal bovine serum (FBS). GM00637 and GM09607 fibroblasts were grown in DMEM containing 15% FBS. GM00536 lymphoblast cells were grown in RPMI supplemented with 10% fetal calf serum. 293T cells were transfected using FUGENE™ (Roche, Indianapolis, Ind.) and HeLa cells, GM00637 and GM09607 with LIPOFECTAMINE™ (INVITROGEN™ Corp., Carlsbad, Calif.). Metabolic labeling was performed by pre-equilibrating cells in phosphate-free media for three hours prior to the addition of 0.5 mCi/ml ^32P orthophosphate (PerkinElmer Life Sciences Inc., Boston, Mass.) for 30 minutes. Inhibition of DNA synthesis and analysis of G2/M checkpoint after irradiation was assessed using well-known methods (e.g., Xu, et al. (2001) Mol. Cell. Biol. 21:3445-3450). Wortmannin was added to samples on ice 15 minutes prior to reactions and 5 μM manganese and 1 μg sonicated calf thymus DNA were present or absent. Proteins were crosslinked by incubating cells in formaldehyde/phosphate-buffered saline (PBS) for 10 minutes at room temperature. Formaldehyde was washed out using PBS containing 100 mM glycine and immunoprecipitation was then performed. […]

Ser^1981 of ATM = assay: Ser^1981 phosphorylation following irradiation of human diploid fibroblasts; format: cell-based
Procedure: Autophosphorylation of Ser^1981 was determined using glutathione-S-transferase (GST) fusion proteins containing various lengths of ATM as substrates of the ATM kinase in in vitro kinase reactions. A polypeptide containing the appropriate serine residue at 1981 was an excellent in vitro substrate, whereas a Ser^1981→Ala mutant was not phosphorylated by ATM whether the read-out was incorporation of radioactive phosphate or binding by the α-Ser^1981-P antibody. […] This concentration of wortmannin inhibits both ATM and DNA-dependent protein kinase (DNA-PK), but not ataxia- and Rad3-related protein (ATR), in vivo (Sarkaria, et al. (1998) Cancer Res. 58:4375-4382). To exclude DNA-PK as a responsible kinase, phosphorylation of Ser^1981 was determined in a cell line lacking DNA-PK activity. The kinetics and levels of IR-induced phosphorylation of Ser^1981 were identical to those in a similar cell line containing DNA-PK activity.

[1] = one hour following exposure, 2 nM camptothecin, 17 nM etoposide or 0.1% H2O2

## OO [H2O2]
Ser^1981 in ATM; [1]
  Phosphorylation of Ser^1981 in ATM: detected

## COS(C)(=O)=O [MMS, methlymethanesulfonate]
Ser^1981 in ATM; five hours after treatment, compared with one hour
  Phosphorylation of Ser^1981 in ATM: more prominent phosphorylation

## CC(/C=C/C(=O)NO)=C\[C@@H](C)C(=O)c1ccc(N(C)C)cc1 [Trichostatin, Trichostatin A]
ATM protein
  phosphorylation of ATM protein: induced rapid and diffuse phosphorylation

## C[C@@]1(CO)[C@H](O)CC[C@@]2(C)[C@H]1CC[C@H]1C[C@@H]3C[C@@]12CC[C@]3(O)CO [aphidicolin]
Ser^1981 in ATM
  Phosphorylation of ATM: Little or no phosphorylation

## CC[C@@]1(O)C(=O)OCc2c1cc1n(c2=O)Cc2cc3ccccc3nc2-1 [camptothecin]
Ser^1981 in ATM; [1]
  Phosphorylation of Ser^1981 in ATM: detected

## CCN(CC)CCCC(C)Nc1ccnc2cc(Cl)ccc12 (stereo not shown) [chloroquine]
HeLa cells; irradiated at 2 Gy
  Average Number of Colonies*: 580
HeLa cells; irradiated at 6 Gy
  Average Number of Colonies*: 129
HeLa cells; HeLa cells, chloroquine prior to irradiation
  increase in cell survival by treatment prior to irradiation: 30%
ATM protein
  phosphorylation of ATM protein: induced rapid and diffuse phosphorylation
HFF
  cell death: No cell death was observed

## NC(=O)NO [hydroxyurea]
Ser^1981 in ATM
  Phosphorylation of ATM: Little or no phosphorylation

## Cc1cn([C@H]2C[C@H](O)[C@@H](CO)O2)c(=O)[nH]c1=O [thymidine]
Ser^1981 in ATM
  Phosphorylation of ATM: Little or no phosphorylation

## COC[C@H]1OC(=O)c2coc3c2[C@@]1(C)C1=C(C3=O)[C@@H]2CCC(=O)[C@@]2(C)C[C@H]1OC(C)=O [wortmannin]
Ser^1981 of ATM
  concentration effectively inhibiting phosphorylation of Ser^1981: ≥ 20 µM

From US7279290B2, “ATM kinase compositions and methods” (St. Jude Children's Research Hospital, priority 2002, dated 2007)
